Measurements as given in PubChem BioAssay (NCI).
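In this assay, cells in 96-well plates receive the compound at five concentrations for 48 hours. Endpoints are linearly interpolated between the surrounding concentrations. Definition used: TGI = concentration required for complete inhibition of growth.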

Assays:
Assay in all cases: inhibition of tumour cell growth, NCI panel, 48 h
[1] = test system: SK-MEL-2 melanoma
[2] = test system: EKVX NSCLC
[3] = test system: NCI-H522 lung
[4] = test system: RPMI-8226 leukemia
[5] = test system: LOX IMVI melanoma
[6] = test system: MDA-MB-435
[7] = test system: NCI-H226 lung
[8] = test system: MALME-3M melanoma
[9] = test system: HCT-116 colon
[10] = test system: SN12C renal

Row | SMILES | TGI [1] | TGI [2] | TGI [3] | TGI [4] | TGI [5] | TGI [6] | TGI [7] | TGI [8] | TGI [9] | TGI [10]
1 | CCOC(=O)c1c(C)n(CCN2CCN(C)CC2)c2ccc(OC)cc12 | 35.3 µM | > 100 µM | > 100 µM | 49.6 µM | 35.1 µM | 56.2 µM | 72 µM | 74.6 µM | > 100 µM | > 100 µM
2 | CCCNC(=O)Cn1c(-c2ccccc2)cc2ccccc21 | > 100 µM | > 100 µM | 60.1 µM | > 100 µM | > 100 µM | > 100 µM | > 100 µM | > 100 µM | 70.4 µM | > 100 µM
3 | O=C1C(=O)C(CCCO)(CCCO)CCCCCCCCC1(CCCO)CCCO | > 100 µM | > 100 µM | > 100 µM | 32 µM | > 100 µM | > 100 µM | > 100 µM | > 100 µM | > 100 µM | > 100 µM
4 | CC(=O)N/N=C1\NN(C(C)=O)C2(S1)C(=O)Nc1ccccc12 (stereo not given) | > 100 µM | > 100 µM | > 100 µM | > 100 µM | > 100 µM | > 100 µM | > 100 µM | > 100 µM | > 100 µM | > 100 µM
5 | COc1ccc(C2=C(N)c3ccccc3C2=O)cc1 | > 100 µM | > 100 µM | > 100 µM | > 100 µM | > 100 µM | > 100 µM | > 100 µM | > 100 µM | > 100 µM | > 100 µM
6 | CNc1ccc([N+](=O)[O-])cc1C(=O)N1CCC[C@H]1CO | > 100 µM | > 100 µM | > 100 µM | > 100 µM | > 100 µM | > 100 µM | > 100 µM | > 100 µM | > 100 µM | > 100 µM
7 | CCCCCCCCCCCOCCC1C(C(C)OCCN2CCCC2)OC2OC(C)(C)OC21 (stereo not given) | 3.51 µM | 10.8 µM | 1.05 µM | 3.17 µM | 2.93 µM | 3.51 µM | 24.5 µM | 3.08 µM | 3.38 µM | 7.31 µM
8 | CN(NC(=O)/C(=C/C=C/c1ccccc1)NC(=O)c1ccccc1)C1=C(Cl)C(=O)[N+](c2ccccc2)=CC1 | 70.9 µM | > 100 µM | 61.5 µM | 63.2 µM | 32.3 µM | 32.9 µM | 37.7 µM | > 100 µM | 45.7 µM | 66 µM
9 | CC(CN(C)C)C(O)(c1ccccc1)c1ccccc1 (stereo not given) | > 100 µM | > 100 µM | > 100 µM | > 100 µM | > 100 µM | > 100 µM | > 100 µM | > 100 µM | > 100 µM | > 100 µM
10 | COc1cc2c(cc1OCc1ccccc1)NC(=O)[C@@H]1C[C@@H](O)CN1C2=O | > 100 µM | > 100 µM | > 100 µM | > 100 µM | > 100 µM | > 100 µM | > 100 µM | > 100 µM | > 100 µM | > 100 µM
11 | Cn1c(=O)n2n(c1=O)C1C(=CC2)C2C=CC1n1c(=O)n(C)c(=O)n12 (stereo not given) | > 100 µM | > 100 µM | > 100 µM | > 100 µM | > 100 µM | > 100 µM | > 100 µM | > 100 µM | > 100 µM | > 100 µM
12 | O=C(NC(Cc1c[nH]c2ccccc12)C(=O)O)/C(=C/c1ccccc1)NC(=O)c1ccccc1 (stereo not given) | > 100 µM | > 100 µM | > 88.7 µM | > 100 µM | > 100 µM | > 100 µM | > 100 µM | > 100 µM | > 100 µM | > 100 µM
13 | CCOC(=O)C1C2C1C1C(C(=O)OCC)C21 (stereo not given) | > 100 µM | > 100 µM | > 100 µM | > 100 µM | > 100 µM | > 100 µM | > 100 µM | > 100 µM | > 100 µM | > 100 µM
14 | O=c1[nH]nc(Cc2ccc([N+](=O)[O-])cc2)[nH]1 | > 100 µM | > 100 µM | > 100 µM | > 100 µM | > 100 µM | > 100 µM | > 100 µM | > 100 µM | > 100 µM | > 100 µM
15 | O=C(O)c1cc2c(cc1CC(Cc1ccccc1)C(=O)O)CCC2 (stereo not given) | > 100 µM | > 100 µM | > 100 µM | > 100 µM | > 100 µM | > 100 µM | > 100 µM | > 100 µM | > 100 µM | > 100 µM
16 | COc1ccc(N2C(=O)CSC2c2cc(OC)c(OC)c(OC)c2)cc1 (stereo not given) | > 100 µM | > 100 µM | 73.6 µM | > 100 µM | 92.9 µM | 85.2 µM | > 100 µM | 97.7 µM | 33.4 µM | 65.9 µM
17 | NC(=O)Nc1n[nH]c(-c2ccccc2)n1 | > 100 µM | > 100 µM | > 100 µM | > 100 µM | > 100 µM | > 100 µM | > 100 µM | > 100 µM | > 100 µM | > 100 µM
